The results in this text go back to patent US10618937B2, “Method of treating Alzheimer's disease” (INDUSTRY-ACADEMIC COOPERATION FOUNDATION GYEONGSANG …, priority 2016, dated 2020).

Assay [1] relates to APP-transfected SH-SY5Y cells. Put plainly: MTT assay, cell viability of APP-transfected SH-SY5Y cells. The assay is classed as cell-based, human. The conditions noted are these: 0.5, 1, 5, 10 and 20 μM, 4 hours, compared to the untreated APP group. The method, then:
The human APPswe/ind gene under the transcriptional control of the SV40 promoter/enhancer linked to the pCAX mammalian expression vector was obtained from addgene; The gene was deposited in the APP reservoir by Dennis Solkoe (plasmid 30145). The plasmid was amplified by DH5alpha strain in LB medium containing 50 μg/ml of ampicillin. The plasmid was purified by using a Qiagen plasmid mini kit (Cat #12143) and digested with EcoRV restriction enzyme and confirmed. The human neuroblastoma cell line SHYSY5Y used in the present in vitro experiments was cultured in DMEM medium containing 10% fetal bovine serum and 1% penicillin-streptomycin antibiotic (stock solutions concentrations of 10,000 U and 10,000 μg/ml, respectively)).
SH-SY5Y cells and HT-22 cells were inoculated into a culture flask containing the medium, and cultured until reaching the confluency of 70% to 75%. The pCAX vector with the APPswe/ind gene was transfected for 48 hours by using Lipofectamine 3000 (Life technologies) according to the manufacturers instructions.
APPswe/ind transfected SH-SY5Y cells were treated with novel peptide for 4 hours, followed by 3-[4, 5-dimethylthiazol-2-yl]-2,5-diphenyl tetrazolium bromide (MTT) analysis and Western blot analysis.
MTT assay was performed to measure the survival rate of cells treated with various concentrations of adiponectin receptor-activating novel peptide (5AA1). The cells were inoculated at 1×10^5 cells/well in a 96-well plate containing 200 μl of Dulbecco's modified Eagle's medium (DMEM). After 70% of cell confluence, SH-SY5Y cells were treated with 0.5 μM, 1 μM, 5 μM, 10 μM, and 20 μM of adiponectin receptor-activating novel peptide, and then cultured for 4 hours. At the end of the treatment, MTT (5 mg/ml in PBS) was added to each well, and the plate was cultured at a temperature of 37° C. for 4 hours. The formazan dissolved in dimethyl sulfoxide (DMSO) was added to the well and the plate was stirred in the agitator for 10 to 20 minutes. Then, the absorbance was measured at a wavelength of 550 nm to 570 nm (L1) and 620 nm to 650 nm (L2) by using a scanning microplate reader.
The L2 absorbance was measured for cell residuals and well imperfections, and the corrected absorbance (Abs.=L1−L2) of each well was calculated from 100× the absorbance of treated well/absorbance of the control well, and was used to measure the cell viability.

In assay [2] the test system is APP/PS1 mice. Put plainly: Thioflavin S staining / immunofluorescence analysis of amyloid plaques in brain. The format is in vivo. As to conditions: cortex of APP/PS1 mice, compared to Veh-injected APP/PS1 mice, P<0.001. The method, then:
Adiponectin receptor-activating novel peptide (5AA1) was IP administered to 10 week old APP/PS1 mice once every 2.5 days for 45 days, and then, to prepare a slide section, the brains of the mice were fixed by transcardial perfusion of ice-cold 4% paraformaldehyde. The brains were fixed in 4% paraformaldehyde for 72 hours, and then, transferred to 20% sucrose and maintained at a temperature of 4° C. for 72 hours. The brains were placed in an optimal cutting temperature (OCT) compound (A.O., USA), frozen in liquid nitrogen, and sectioned into coronal plane (14 μm) in CM 3050C cryostat (Leica, Germany). Pictures of tissue sections were taken on ProbeOn Plus charged slides (Fisher, USA).
Immunofluorescence analysis was performed by using minor modifications of the method described in the existing study (Shah et al., 2014; Shah et al., 2015). Slides containing tissue sections were washed twice with a 0.01 M PBS solution for 15 minutes. Proteinase K was added to the tissue sections, which were then cultured at a temperature of 37° C. for 5 minutes. The tissue sections were then reacted in a blocking solution (5% normal goat serum, 0.3% Triton X-100, PBS) for 1 hour. The slides were reacted overnight with the primary antibody (the same antibody used in the ‘Western blot analysis’) and then reacted with secondary TRITC- or FITC-conjugated antibodies (diluted 1:50 in PBS; Santa Cruz) at room temperature for 90 minutes. The slides were dipped in Prolong Antifade reagent (Molecular Probe, Eugene, Oreg., USA) and stained. All stained slides were analyzed with a confocal laser scanning microscope (Flouview FV 1000). Amyloid plaques were visualized in brain slices after Thioflavin S staining. The brain slices were washed twice with 0.01 M PBS for 10 minutes, and then immersed in fresh 1% Thioflavin S solution at room temperature for 10 minutes. The brain slices were then immersed in 70% ethanol for 5 minutes, then washed twice with water, counterstained with propidium iodide (PI) and covered with cover glass.
Morphological analysis and signals were analyzed with Image J software (open source software provided by the US NIH), and the analysis results were expressed as IOD (Integral Optical Density). The ratio of the amyloid deposit site in the proposed area was also quantified by using Image-J software.

With “GPCWP (adiponectin receptor-activating peptide) [5AA4]”, in assay [1], the cell viability entry is on record as “increased compared to the APP group, although the increase was not dependent on concentration”. For the same substance, the “integrated density of the Aβ plaques in the cortex (Thioflavin S)” value in assay [2] was “significantly reduced”.
As for “GPCYP (adiponectin receptor-activating peptide) [5AA3]”, the cell viability entry in assay [1] is on record as “increased compared to the APP group, although the increase was not dependent on concentration”. Besides, the “integrated density of the Aβ plaques in the cortex (Thioflavin S)” value in assay [2] is reported as “significantly reduced”.
Taken in the same sequence, the figures for “GPWGP (adiponectin receptor-activating peptide) [5AA2]” were “concentration-dependently increased” and “significantly reduced”.
